ChEMBL document CHEMBL1212831, “Discovery of N-[(2S)-5-(6-fluoro-3-pyridinyl)-2,3-dihydro-1H-inden-2-yl]-2-propanesulfonamide, a novel clinical AMPA receptor positive modulator” (J Med Chem, 2010)
The source made the active and inactive calls. The rule behind the calls is not given here.

What was measured:
Glutamate receptor 2 = Glutamate receptor 2 (Homo sapiens, UniProt P42262)
Description: Activation of human GluR2 flip isoform expressed in HEK293 cells assessed as increase of glutamate-induced intracellular calcium level by FLIPR assay

Cytochrome P450 1A2 = target: T1, Cytochrome P450 1A2 (Homo sapiens, UniProt P05177)
T1 sequence (P05177 whole entry): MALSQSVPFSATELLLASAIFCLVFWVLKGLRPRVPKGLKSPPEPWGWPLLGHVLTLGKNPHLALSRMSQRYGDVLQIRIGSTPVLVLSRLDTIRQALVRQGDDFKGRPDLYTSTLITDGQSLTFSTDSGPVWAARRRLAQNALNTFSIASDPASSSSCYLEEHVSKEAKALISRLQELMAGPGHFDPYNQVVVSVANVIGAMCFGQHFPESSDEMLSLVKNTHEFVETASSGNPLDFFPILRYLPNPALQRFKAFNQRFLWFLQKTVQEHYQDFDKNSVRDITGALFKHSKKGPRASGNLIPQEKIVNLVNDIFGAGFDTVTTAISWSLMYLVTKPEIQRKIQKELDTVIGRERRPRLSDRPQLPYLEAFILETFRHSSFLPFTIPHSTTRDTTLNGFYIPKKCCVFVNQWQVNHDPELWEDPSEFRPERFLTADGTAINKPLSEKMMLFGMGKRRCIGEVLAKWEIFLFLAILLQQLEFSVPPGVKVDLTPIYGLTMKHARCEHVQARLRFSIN
Description: Inhibition of human CYP1A2 after 10 mins

Cytochrome P450 2C9 = Cytochrome P450 2C9 (Homo sapiens, UniProt P11712)
Cytochrome P450 2C9, sequence (P11712 whole entry): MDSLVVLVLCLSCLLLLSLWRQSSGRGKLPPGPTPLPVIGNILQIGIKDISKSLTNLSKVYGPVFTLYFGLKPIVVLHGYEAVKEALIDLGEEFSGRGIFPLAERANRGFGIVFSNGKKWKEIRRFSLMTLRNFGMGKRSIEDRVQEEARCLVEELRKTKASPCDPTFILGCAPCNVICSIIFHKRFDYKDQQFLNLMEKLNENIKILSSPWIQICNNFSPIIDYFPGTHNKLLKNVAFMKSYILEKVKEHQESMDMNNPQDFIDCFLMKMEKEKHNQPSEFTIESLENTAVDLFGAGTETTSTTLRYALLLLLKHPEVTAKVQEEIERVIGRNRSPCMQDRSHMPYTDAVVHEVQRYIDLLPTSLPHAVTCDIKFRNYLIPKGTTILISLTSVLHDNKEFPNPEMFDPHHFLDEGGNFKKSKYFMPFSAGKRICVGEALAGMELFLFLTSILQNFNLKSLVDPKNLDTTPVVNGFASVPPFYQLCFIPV
Description: Inhibition of human CYP2C9 after 10 mins

Cytochrome P450 2C19 = Cytochrome P450 2C19 (Homo sapiens, UniProt P33261)
Cytochrome P450 2C19, sequence (P33261 whole entry): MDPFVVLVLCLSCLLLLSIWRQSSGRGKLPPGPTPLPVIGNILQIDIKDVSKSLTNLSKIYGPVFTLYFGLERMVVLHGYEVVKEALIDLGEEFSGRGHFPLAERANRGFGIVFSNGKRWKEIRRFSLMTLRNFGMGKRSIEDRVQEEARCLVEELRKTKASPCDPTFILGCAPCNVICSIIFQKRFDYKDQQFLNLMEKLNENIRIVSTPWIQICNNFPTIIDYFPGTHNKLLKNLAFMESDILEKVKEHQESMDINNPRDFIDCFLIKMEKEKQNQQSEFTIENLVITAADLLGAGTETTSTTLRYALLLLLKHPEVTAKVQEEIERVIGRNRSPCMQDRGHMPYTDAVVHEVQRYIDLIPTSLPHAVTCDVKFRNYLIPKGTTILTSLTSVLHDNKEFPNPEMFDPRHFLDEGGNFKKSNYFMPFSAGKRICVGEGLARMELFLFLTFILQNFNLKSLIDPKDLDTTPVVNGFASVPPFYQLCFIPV
Description: Inhibition of human CYP2C19 after 10 mins

Cytochrome P450 2D6 = Cytochrome P450 2D6 (Homo sapiens, UniProt P10635)
Cytochrome P450 2D6, sequence (P10635 whole entry): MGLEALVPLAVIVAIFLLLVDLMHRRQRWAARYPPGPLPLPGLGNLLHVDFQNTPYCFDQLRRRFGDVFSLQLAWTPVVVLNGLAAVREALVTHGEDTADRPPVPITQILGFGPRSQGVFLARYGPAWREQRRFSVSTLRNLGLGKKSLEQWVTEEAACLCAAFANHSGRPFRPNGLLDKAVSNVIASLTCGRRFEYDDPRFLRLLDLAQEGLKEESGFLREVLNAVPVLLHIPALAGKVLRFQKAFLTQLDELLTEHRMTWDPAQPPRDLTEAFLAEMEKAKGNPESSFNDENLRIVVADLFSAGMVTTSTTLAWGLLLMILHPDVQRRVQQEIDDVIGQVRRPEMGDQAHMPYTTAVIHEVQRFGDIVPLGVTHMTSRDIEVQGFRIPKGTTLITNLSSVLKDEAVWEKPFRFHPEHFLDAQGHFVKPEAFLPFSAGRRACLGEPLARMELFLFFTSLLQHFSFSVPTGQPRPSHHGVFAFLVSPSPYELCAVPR
Description: Inhibition of human CYP2D6 after 10 mins

Cytochrome P450 3A4 = Cytochrome P450 3A4 (Homo sapiens, UniProt P08684)
Cytochrome P450 3A4, sequence (P08684 whole entry): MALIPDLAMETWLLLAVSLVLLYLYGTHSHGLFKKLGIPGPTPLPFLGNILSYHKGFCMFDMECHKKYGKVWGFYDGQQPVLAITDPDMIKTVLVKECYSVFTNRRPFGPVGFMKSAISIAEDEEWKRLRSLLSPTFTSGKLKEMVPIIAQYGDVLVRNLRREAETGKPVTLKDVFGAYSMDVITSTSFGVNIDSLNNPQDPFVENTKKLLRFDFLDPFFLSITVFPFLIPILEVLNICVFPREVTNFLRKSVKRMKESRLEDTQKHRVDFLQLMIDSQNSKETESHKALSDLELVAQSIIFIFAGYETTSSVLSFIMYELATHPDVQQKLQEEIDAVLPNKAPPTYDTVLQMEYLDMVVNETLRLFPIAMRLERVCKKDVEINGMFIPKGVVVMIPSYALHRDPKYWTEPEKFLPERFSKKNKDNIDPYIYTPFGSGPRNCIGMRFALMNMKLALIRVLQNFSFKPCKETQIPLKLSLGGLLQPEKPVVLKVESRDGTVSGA
Description: Inhibition of human CYP3A4 after 10 mins

Liver microsomes [1] = system: Liver microsomes
Liver microsomes [2] = system: Liver microsomes; remark: listed apart in the source
[3] = Plasma protein binding in rat at 1 ug/ml after 6 hrs by equilibrium dialysis method; assay type: ADME, cell-free; details: read-out: PPB (converted)
[4] = AUC (0 to t) in rat; assay type: ADME, organism-based; details: plasma
in vivo = details: rat, brain/blood
Description: Ratio of brain AUC (0 to t) to blood AUC (0 to t) in rat

MDR1 (human) = experiment: in vitro; details: dog, MDCK-MDR1
Description: Efflux ratio of permeability from basolateral to apical over apical to basolateral side of MDCK2 cells over expressing human MDR1

Brain [5] = experiment: Brain tissue binding in rat at 1 ug/ml after 6 hrs by equilibrium dialysis method; assay type: ADME, tissue-based
[6] = Blood clearance in Sprague-Dawley rat at 1 mg/kg, iv and 3 mg/kg, po; assay type: ADME, organism-based
[7] = Half life in Sprague-Dawley rat at 1 mg/kg, iv and 3 mg/kg, po; assay type: ADME, organism-based; details: in vivo
[8] = Volume of distribution at steady state in Sprague-Dawley rat at 1 mg/kg, iv and 3 mg/kg, po; assay type: ADME, organism-based; details: in vivo, read-out: Vdss
[9] = Cmax in Sprague-Dawley rat at 3 mg/kg, po; assay type: ADME, organism-based; parameters: dose 3 mg/kg, route oral; details: in vivo
[10] = Tmax in Sprague-Dawley rat at 3 mg/kg, po; assay type: ADME, organism-based; parameters: dose 3 mg/kg, route oral; details: in vivo
[11] = Oral bioavailability in Sprague-Dawley rat at 3 mg/kg; assay type: ADME, organism-based; details: in vivo
Rattus norvegicus [12] = experiment: Cognitive enhancing effect in po dosed Lister Hooded rat assessed as reversal of 24 hrs delay-induced retention deficit behavior by novel object recognition assay; assay type: functional; details: read-out: MED
Blood = experiment: Drug level in po dosed Lister Hooded rat blood; assay type: ADME, organism-based; details: in vivo
Brain [13] = experiment: Drug level in po dosed Lister Hooded rat brain assessed per gram of tissue; assay type: ADME, organism-based; details: in vivo
Rattus norvegicus [14] = experiment: Antiamnesic activity in po dosed assessed as inhibition of Scopolamine-induced amnesic deficit administered 3 hrs before Scopolamine challenge by step-down passive avoidance test; assay type: functional, organism-based; details: Wistar
Rattus norvegicus [15] = experiment: Antiamnesic activity in po dosed assessed as inhibition of amnesic deficit by step-down passive avoidance test; assay type: functional, organism-based; details: Wistar

Glutamate receptor 2, sequence (P42262 whole entry): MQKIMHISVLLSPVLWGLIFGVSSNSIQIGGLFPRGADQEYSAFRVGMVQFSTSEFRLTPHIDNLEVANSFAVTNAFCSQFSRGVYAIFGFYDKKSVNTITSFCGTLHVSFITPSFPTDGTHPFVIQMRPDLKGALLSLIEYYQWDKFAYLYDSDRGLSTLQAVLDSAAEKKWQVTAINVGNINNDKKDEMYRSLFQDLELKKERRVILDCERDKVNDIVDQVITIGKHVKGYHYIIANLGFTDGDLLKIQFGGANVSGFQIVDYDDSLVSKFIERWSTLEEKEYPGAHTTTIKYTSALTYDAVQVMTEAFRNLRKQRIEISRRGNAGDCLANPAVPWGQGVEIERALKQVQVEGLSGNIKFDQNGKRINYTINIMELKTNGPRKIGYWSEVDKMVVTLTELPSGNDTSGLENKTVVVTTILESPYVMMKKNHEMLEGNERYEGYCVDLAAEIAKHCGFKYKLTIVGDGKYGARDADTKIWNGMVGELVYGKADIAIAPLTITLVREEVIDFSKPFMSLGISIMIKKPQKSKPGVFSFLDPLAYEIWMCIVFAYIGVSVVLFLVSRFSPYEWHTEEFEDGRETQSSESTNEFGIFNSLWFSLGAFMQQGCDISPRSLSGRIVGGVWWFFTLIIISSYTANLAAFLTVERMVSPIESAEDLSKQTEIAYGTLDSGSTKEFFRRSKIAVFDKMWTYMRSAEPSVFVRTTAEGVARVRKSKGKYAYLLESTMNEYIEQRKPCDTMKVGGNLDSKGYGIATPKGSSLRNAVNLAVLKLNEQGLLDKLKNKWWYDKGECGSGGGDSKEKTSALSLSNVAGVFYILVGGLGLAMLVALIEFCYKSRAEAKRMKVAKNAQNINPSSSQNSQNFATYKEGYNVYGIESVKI
Description for physchem: Dissociation constant, pKa of the compound

Compound	EC50 (Glutamate receptor 2) [µM]	IC50 (Cytochrome P450 1A2) [µM]	IC50 (Cytochrome P450 2C9) [µM]	IC50 (Cytochrome P450 2C19) [µM]	IC50 (Cytochrome P450 2D6) [µM]	IC50 (Cytochrome P450 3A4) [µM]	IC50 (Liver microsomes [1]) [µM]	IC50 (Liver microsomes [2]) [µM]	pKa (physchem)	other results
CC(C)S(=O)(=O)NC1Cc2ccc(-c3ccc(Cl)cn3)cc2C1 (stereo unspecified)	7.94	> 10	> 10	> 10	> 10	> 10	< 0.8	< 0.5		
CC(C)S(=O)(=O)NC1Cc2ccc(-c3cccc(C#N)c3)cc2C1 (stereo unspecified)	> 50.1									
CC(C)S(=O)(=O)NC1Cc2ccc(-c3cccc(S(=O)(=O)N(C)C)c3)cc2C1 (stereo unspecified)	7.94									
CC(C)S(=O)(=O)NC1Cc2ccc(-c3cccc(CN4CCCC4=O)c3)cc2C1 (stereo unspecified)	12.6									fraction unbound at 6 h, 1 ug/ml [3]: 0.024; AUC(0-t) [4]: 36 ng·h/mL; Kp (in vivo): 0.4
Cc1cccnc1-c1ccc2c(c1)CC(NS(=O)(=O)C(C)C)C2 (stereo unspecified)	20	> 10	> 10	> 10	> 10	> 10	14	1.3	4.9	
CC(C)S(=O)(=O)N[C@@H]1Cc2ccc(-c3ccc(F)nc3)cc2C1					> 10					
Cc1ccc(-c2ccc3c(c2)CC(NS(=O)(=O)C(C)C)C3)cn1 (stereo unspecified)	3.16	> 10	> 10	> 10	> 10	> 10	2	0.7	5.7	Kp (in vivo): 1.4
CC(C)S(=O)(=O)NC1Cc2ccc(-c3cccc(N(C)S(C)(=O)=O)c3)cc2C1 (stereo unspecified)	1.26									fraction unbound at 6 h, 1 ug/ml [3]: 0.036; AUC(0-t) [4]: 161 ng·h/mL; Kp (in vivo): 0.4; efflux ratio (MDR1 (human)): 3.2
CC(C)S(=O)(=O)NC1Cc2ccc(-c3cncc(C#N)c3)cc2C1 (stereo unspecified)	63.1	> 10	> 10	> 10	> 10	> 10	< 0.5	0.7		
CC(C)C(=O)Nc1cccc(-c2ccc3c(c2)CC(NS(=O)(=O)C(C)C)C3)c1 (stereo unspecified)	> 50.1									
CC(C)S(=O)(=O)NC1Cc2ccc(-c3cccc(NS(C)(=O)=O)c3)cc2C1 (stereo unspecified)	0.794									fraction unbound at 6 h, 1 ug/ml [3]: 0.041; AUC(0-t) [4]: 1130 ng·h/mL; Kp (in vivo): 0.1; efflux ratio (MDR1 (human)): 5.8
CCS(=O)(=O)Nc1cccc(-c2ccc3c(c2)CC(NS(=O)(=O)C(C)C)C3)c1 (stereo unspecified)	2.51									
CC(C)S(=O)(=O)NC1Cc2ccc(-c3ccc(F)nc3)cc2C1 (stereo unspecified)		> 10	> 10	> 10	> 10	> 10	1.1	1.7		
CC(=O)Nc1cccc(-c2ccc3c(c2)CC(NS(=O)(=O)C(C)C)C3)c1 (stereo unspecified)	20									fraction unbound at 6 h, 1 ug/ml [3]: 0.051
CC(C)S(=O)(=O)NC[C@H](C)c1ccc(NC(=O)c2cc(F)cc(F)c2)cc1	0.398									
Cc1ccc(-c2ccc3c(c2)CC(NS(=O)(=O)C(C)C)C3)nc1 (stereo unspecified)	3.16	> 10	> 10	> 10	> 10	> 10	7.3	0.8	4.9	
CC(=O)c1cccc(-c2ccc3c(c2)CC(NS(=O)(=O)C(C)C)C3)c1 (stereo unspecified)	> 50.1									
Cc1ccc(-c2ccc3c(c2)C[C@@H](NS(=O)(=O)C(C)C)C3)cn1	2	> 10	> 10	> 10	> 10	> 10	3.5	< 0.6	5.8	Activity (Brain [5]): 96.7%; fraction unbound at 6 h, 1 ug/ml [3]: 0.078; clearance [6]: 55 mL/min/kg; half-life [7]: 36 min; Vd [8]: 2.4 L/kg; Cmax [9]: 116 ng/mL; Tmax [10]: 60 min; bioavailability [11]: 25%; Kp (in vivo): 1.3; efflux ratio (MDR1 (human)): 0.9
CC(=O)Cc1cccc(-c2ccc3c(c2)CC(NS(=O)(=O)C(C)C)C3)c1 (stereo unspecified)	6.31									
CC(C)S(=O)(=O)N[C@H]1Cc2ccc(-c3ccc(F)cn3)cc2C1	2	> 10	> 10	> 10	> 10	> 10	1.6	< 0.5	2.7	Activity (Brain [5]): 97.9%; fraction unbound at 6 h, 1 ug/ml [3]: 0.097; minimal effective dose (Rattus norvegicus [12]): 0.3 mg/kg; Drug uptake (Blood): 37 ng/mL; Drug uptake (Brain [13]): 70 ng/g; Activity (Rattus norvegicus [14]): Dose-dependent effect; inhibition (Rattus norvegicus [15]): inactive; clearance [6]: 24 mL/min/kg; half-life [7]: 60 min; Vd [8]: 2.2 L/kg; Cmax [9]: 436 ng/mL; Tmax [10]: 30 min; bioavailability [11]: 72%; Kp (in vivo): 1.4; efflux ratio (MDR1 (human)): 1.1
CC(C)S(=O)(=O)NC1Cc2ccc(-c3ccc(F)cn3)cc2C1 (stereo unspecified)	6.31	> 10	> 10	> 10	> 10	> 10	0.6	0.5	2.7	
Cc1ccncc1-c1ccc2c(c1)CC(NS(=O)(=O)C(C)C)C2 (stereo unspecified)	20	> 10	> 10	> 10	> 10	> 9	4.5	1.4	5.8	
CC(C)S(=O)(=O)NC1Cc2ccc(-c3cccc(CN4CCCS4(=O)=O)c3)cc2C1 (stereo unspecified)	0.398									fraction unbound at 6 h, 1 ug/ml [3]: 0.033
CC(C)S(=O)(=O)NC1Cc2ccc(-c3cccnc3F)cc2C1 (stereo unspecified)	15.8	> 10	> 10	9	> 10	> 10	2.5	2.1		Kp (in vivo): 1.5
CC(C)S(=O)(=O)NC1Cc2ccc(-c3cccnc3)cc2C1 (stereo unspecified)	15.8	0.6	> 10	> 10	> 10	> 10	2.1	< 0.5	5.1	
